# Results taken from US10688200B2, “Urea-based prostate specific membrane antigen (PSMA) inhibitors for imaging and therapy” (Five Eleven Pharma Inc., priority 2015, dated 2020).
# Tests used:
# [1] = Biodistribution of radiotracers in normal mice; assay type: in vivo, mouse; conditions: normal male mice
# Experimental: Normal CD-1 male mice were injected via the tail vein with 35 μCi of [^68Ga] radiotracers (0.2 nmole of ligand). […] All organs were removed and blood was also collected. Each organ was weighed, and the tissue radioactivity was measured with an automated gamma counter (Wizard, Perkin Elmer). The % ID/g was calculated by comparison with samples of a standard dilution of the initial dose. All measurements were corrected for decay.
# [2] = system: LNCaP (left shoulder) and PC-3 (right shoulder) tumor bearing nude mouse; experiment: Small animal PET imaging with [68Ga]1a and [68Ga]4a; assay type: in vivo; conditions: 60 to 75 min after i.v. injection
# Experimental: Male athymic mice (CD-1 nude, 5-6 weeks old) were obtained from Charles River, and were allowed to acclimatize at the vivarium for 1 week prior to implanting tumors. Mice were provided with food and water ad libitum. LNCaP tumors were induced on the left shoulder by sub-cutaneous (s.c.) injection of 5.0×10^6 cells in a 200 μL cell suspension of a 1:1 v/v mixture of media with reconstituted basement membrane (BD Matrigel™, Collaborative Biomedical Products Inc., Bedford, Mass.). Similarly, PC-3 tumors were induced on the right shoulder by s.c. injection of 2.0×10^6 cells. Palpable LNCaP tumors developed after a period of 4-5 weeks.
# Dynamic small animal PET (APET) imaging studies of LNCaP (left shoulder) and PC-3 (right shoulder) tumor bearing nude mouse were performed with [^68Ga]1a and [^68Ga]4a. PET imaging studies were performed on a Phillips Mosaic small animal PET scanner, which has an imaging field of view of 11.5 cm. Under isoflurane anesthesia (1-2%, 1 L/min oxygen), the tumor-bearing nude mouse was injected with 0.5 mCi activity by an intravenous injection into the lateral tail vein. Data acquisition began at 30 min after the injection. Dynamic scans were conducted over a period of 1 h (5 min/frame; image voxel size 0.5 mm^3). Mouse was visually monitored for breathing, and a heating pad was used to maintain body temperature throughout the entire procedure. Images were reconstructed and a region of interest (ROI) analysis was performed using AMIDE software (http://amide.sourceforge.net/).
# Representative animal PET images of LNCaP xenograft mice between 60 to 75 min after i.v. injection of [^68Ga]1a, and [^68Ga]4a are shown in FIGS. 3A-3F. […] FIGS. 3A-3F show sagittal, transaxial and coronal sections of APET images of nude mouse with LNCaP tumor at left shoulder and PC-3 tumor at right shoulder between 60 to 75 min post i.v. injection of [^68Ga]1a (FIGS. 3A-3C) and [^68Ga]4a (FIG. 3D-3F).
# PSMA [3] = target: T1, PSMA (Homo sapiens, UniProt Q04609); experiment: In vitro competitive binding assay to determine IC50 to PSMA; conditions: LNCaP cells, [125I]MIP-1095 radioligand, 37° C. 1 h, mean±SD (n=4); read-out: PSMA binding affinities of cold ligands, IC50
# T1 construct: 100 μL of freshly harvested PSMA cells; endogenous in cells; host or cells: 'PSMA cells' in the method
# Experimental: In Vitro Competitive Binding Assay to Determine IC50 to PSMA
# In order to determine the binding affinity, in vitro competitive binding assays were performed. The LNCaP cells were incubated with 150,000 cpm of [^125I]MIP-1095 in the presence of 10 different concentrations of competing drugs. After incubation at 37° C. for 1 h, the bound and free radioactivity were separated by vacuum filtration through GF/B filter paper using a Brandel M-24R cell harvester followed by washing twice. Non-specific binding was defined with 10 μM PMPA. The cell bound radioactivity was measured with a gamma counter, 2470 Wizard^2 (Perkin-Elmer, IL). The IC50 values were calculated by fitting the data using a nonlinear regression algorithm (GraphPad Software).
# The PSMA binding affinities were determined in a competitive binding assay using LNCaP human prostate carcinoma cells and the known high affinity PSMA ligand, [^125I]MIP-1095 as the radioligand. Data are expressed as mean±SD (n=4).
# PSMA [4] = target: T1, PSMA; experiment: In vitro binding signals of 68Ga labeled ligands in LNCaP tumor homogenates; conditions: Ga-68 radiolabeled ligands; for Total binding (TB): 37° C. 60 min; for Nonspecific binding (NSB): with 1a (PSMA11) 10 μM
# T1 sequence (Q04609 whole entry): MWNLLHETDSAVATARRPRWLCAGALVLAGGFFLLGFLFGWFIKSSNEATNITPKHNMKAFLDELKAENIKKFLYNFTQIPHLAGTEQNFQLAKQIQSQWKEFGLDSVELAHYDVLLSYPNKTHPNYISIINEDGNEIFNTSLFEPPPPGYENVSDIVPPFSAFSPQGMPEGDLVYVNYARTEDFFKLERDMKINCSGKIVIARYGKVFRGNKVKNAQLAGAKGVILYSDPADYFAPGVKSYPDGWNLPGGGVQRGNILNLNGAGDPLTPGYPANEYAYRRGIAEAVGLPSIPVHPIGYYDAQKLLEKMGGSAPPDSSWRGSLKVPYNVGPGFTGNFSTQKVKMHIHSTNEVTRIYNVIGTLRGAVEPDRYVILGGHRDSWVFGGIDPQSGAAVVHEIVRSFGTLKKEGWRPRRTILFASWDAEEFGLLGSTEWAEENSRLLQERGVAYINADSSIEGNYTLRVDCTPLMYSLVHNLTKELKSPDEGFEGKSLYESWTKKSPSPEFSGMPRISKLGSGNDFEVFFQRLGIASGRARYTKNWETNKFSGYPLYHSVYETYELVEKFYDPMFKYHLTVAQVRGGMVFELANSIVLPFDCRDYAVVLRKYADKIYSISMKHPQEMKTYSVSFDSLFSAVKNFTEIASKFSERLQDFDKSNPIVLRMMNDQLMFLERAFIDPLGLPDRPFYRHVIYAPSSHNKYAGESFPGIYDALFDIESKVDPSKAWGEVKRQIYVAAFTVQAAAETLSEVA
compound,measurement,setting,value
"O=C(O)CCc1ccc(O)c(CN(CCN(CC(=O)O)Cc2cc(CCC(=O)NCCCCCC(=O)NCCCC[C@H](NC(=O)N[C@@H](CCC(=O)O)C(=O)O)C(=O)O)ccc2O)CC(=O)O)n1 [[^68Ga]4a, metal not drawn]",Biodistribution: Blood,[1]; 2 min,8.59 ± 0.82 % dose/g
same,Biodistribution: Bone,[1]; 2 min,2.33 ± 0.21 % dose/g
same,Biodistribution: Brain,[1]; 2 min,0.27 ± 0.04 % dose/g
same,Biodistribution: Heart,[1]; 2 min,3.62 ± 0.34 % dose/g
same,Biodistribution: Kidney,[1]; 2 min,60.7 ± 2.89 % dose/g
same,Biodistribution: Liver,[1]; 2 min,2.22 ± 0.23 % dose/g
same,Biodistribution: Lung,[1]; 2 min,5.45 ± 0.44 % dose/g
same,Biodistribution: Muscle,[1]; 2 min,2.68 ± 0.30 % dose/g
same,Biodistribution: Pancreas,[1]; 2 min,2.35 ± 0.12 % dose/g
same,Biodistribution: Skin,[1]; 2 min,2.84 ± 0.19 % dose/g
same,Biodistribution: Spleen,[1]; 2 min,3.64 ± 0.16 % dose/g
same,Biodistribution: Blood,[1]; 30 min,0.95 ± 0.33 % dose/g
same,Biodistribution: Bone,[1]; 30 min,0.37 ± 0.10 % dose/g
same,Biodistribution: Brain,[1]; 30 min,0.04 ± 0.01 % dose/g
same,Biodistribution: Heart,[1]; 30 min,0.56 ± 0.21 % dose/g
same,Biodistribution: Kidney,[1]; 30 min,148 ± 5.73 % dose/g
same,Biodistribution: Liver,[1]; 30 min,0.39 ± 0.12 % dose/g
same,Biodistribution: Lung,[1]; 30 min,1.55 ± 0.30 % dose/g
same,Biodistribution: Muscle,[1]; 30 min,0.61 ± 0.10 % dose/g
same,Biodistribution: Pancreas,[1]; 30 min,0.89 ± 0.12 % dose/g
same,Biodistribution: Skin,[1]; 30 min,0.99 ± 0.16 % dose/g
same,Biodistribution: Spleen,[1]; 30 min,3.51 ± 1.69 % dose/g
same,Biodistribution: Blood,[1]; 60 min,0.30 ± 0.03 % dose/g
same,Biodistribution: Bone,[1]; 60 min,0.24 ± 0.02 % dose/g
same,Biodistribution: Brain,[1]; 60 min,0.03 ± 0.00 % dose/g
same,Biodistribution: Heart,[1]; 60 min,0.31 ± 0.14 % dose/g
same,Biodistribution: Kidney,[1]; 60 min,181 ± 26.81 % dose/g
same,Biodistribution: Liver,[1]; 60 min,0.23 ± 0.01 % dose/g
same,Biodistribution: Lung,[1]; 60 min,1.18 ± 0.14 % dose/g
same,Biodistribution: Muscle,[1]; 60 min,0.35 ± 0.07 % dose/g
same,Biodistribution: Pancreas,[1]; 60 min,1.09 ± 0.27 % dose/g
same,Biodistribution: Skin,[1]; 60 min,0.45 ± 0.07 % dose/g
same,Biodistribution: Spleen,[1]; 60 min,2.83 ± 1.49 % dose/g
same,Biodistribution: Blood,[1]; 120 min,0.20 ± 0.10 % dose/g
same,Biodistribution: Bone,[1]; 120 min,0.23 ± 0.06 % dose/g
same,Biodistribution: Brain,[1]; 120 min,0.02 ± 0.00 % dose/g
same,Biodistribution: Heart,[1]; 120 min,0.21 ± 0.03 % dose/g
same,Biodistribution: Kidney,[1]; 120 min,128 ± 25.0 % dose/g
same,Biodistribution: Liver,[1]; 120 min,0.18 ± 0.05 % dose/g
same,Biodistribution: Lung,[1]; 120 min,0.83 ± 0.21 % dose/g
same,Biodistribution: Muscle,[1]; 120 min,0.20 ± 0.03 % dose/g
same,Biodistribution: Pancreas,[1]; 120 min,1.02 ± 0.26 % dose/g
same,Biodistribution: Skin,[1]; 120 min,0.30 ± 0.02 % dose/g
same,Biodistribution: Spleen,[1]; 120 min,2.83 ± 1.25 % dose/g
same,"LNCaP tumor visualization in PET images, in words",[2],clearly visualized
same,"PC-3 (PSMA negative) tumor uptake in PET images, in words",[2],did not show any uptakes
"O=C(O)CC[C@H](NC(=O)N[C@@H](CCCCNC(=O)CCCCCNC(=O)CCc1ccc(O)c(CN(CCN(CC(=O)O)Cc2cc(CCC(=O)NCCNC(=O)CN3CCN(CC(=O)O)CCN(CC(=O)O)CCN(CC(=O)O)CC3)ccc2O)CC(=O)O)c1)C(=O)O)C(=O)O [Compound 1g, (3S,7S)-22-(3-(((carboxymethyl)(2-((carboxymethyl)(2-hydroxy-5-(3-oxo-3-((2-(2-(4,7,10-tris(carboxymethyl)-1,4,7,10-tetraazacyclododecan-1-yl)acetamido)ethyl)amino)propyl)benzyl)amino)ethyl)amino)methyl)-4-hydroxyphenyl)-5,13,20-trioxo-4,6,12,19-tetraazadocosane-1,3,7-tricarboxylic acid]",IC50,PSMA [3],70.2 ± 29.1 nM
same,Specific binding (SB) SB = TB − NSB,PSMA [4],9.0
same,Total binding (TB),PSMA [4],10.5
same,Nonspecific binding (NSB),PSMA [4],1.5
"O=C(O)CC[C@H](NC(=O)N[C@@H](CCCCNC(=O)CCCCCNC(=O)CCc1ccc(O)c(CN(CCN(CC(=O)O)Cc2cc(CCC(=O)N[C@H]3C(O)O[C@H](CO)[C@@H](O)[C@@H]3O)ccc2O)CC(=O)O)c1)C(=O)O)C(=O)O (stereo partly drawn) [Compound 1b, (3S,7S)-22-(3-(((Carboxymethyl)(2-((carboxymethyl)(2-hydroxy-5-(3-oxo-3-(((3R,4R,5S,6R)-2,4,5-trihydroxy-6-(hydroxymethyl)tetrahydro-2H-pyran-3-yl)amino)propyl)benzyl)amino)ethyl)amino)methyl)-4-hydroxyphenyl)-5,13,20-trioxo-4,6,12,19-tetraazadocosane-1,3,7-tricarboxylic acid]",IC50,PSMA [3],53.3 ± 30.9 nM
same,Specific binding (SB) SB = TB − NSB,PSMA [4],8.8
same,Total binding (TB),PSMA [4],10.8
same,Nonspecific binding (NSB),PSMA [4],2.0
"O=C(O)CC[C@H](NC(=O)CCc1ccc(O)c(CN(CCN(CC(=O)O)Cc2cc(CCC(=O)NCCCCCC(=O)NCCCC[C@H](NC(=O)N[C@@H](CCC(=O)O)C(=O)O)C(=O)O)ccc2O)CC(=O)O)c1)C(=O)O [Compound 1f, (3S,7S)-22-(3-(((Carboxymethyl)(2-((carboxymethyl)(5-(3-(((S)-1,3-dicarboxypropyl)amino)-3-oxopropyl)-2-hydroxybenzyl)amino)ethyl)amino)methyl)-4-hydroxyphenyl)-5,13,20-trioxo-4,6,12,19-tetraazadocosane-1,3,7-tricarboxylic acid]",IC50,PSMA [3],37.2 ± 18.6 nM
same,Specific binding (SB) SB = TB − NSB,PSMA [4],12.0
same,Total binding (TB),PSMA [4],13.5
same,Nonspecific binding (NSB),PSMA [4],1.5
"O=C(O)CC[C@H](NC(=O)N[C@@H](CCCCNC(=O)CCCCCNC(=O)CCc1ccc(O)c(CN(CCN(CC(=O)O)Cc2cc(CCC(=O)N[C@@H](CC(=O)O)C(=O)O)ccc2O)CC(=O)O)c1)C(=O)O)C(=O)O [Compound 1e, (3S,7S)-22-(3-(((Carboxymethyl)(2-((carboxymethyl)(5-(3-(((S)-1,2-dicarboxyethyl)amino)-3-oxopropyl)-2-hydroxybenzyl)amino)ethyl)amino)methyl)-4-hydroxyphenyl)-5,13,20-trioxo-4,6,12,19-tetraazadocosane-1,3,7-tricarboxylic acid]",IC50,PSMA [3],29.5 ± 11 nM
same,Specific binding (SB) SB = TB − NSB,PSMA [4],13.2
same,Total binding (TB),PSMA [4],14.8
same,Nonspecific binding (NSB),PSMA [4],1.6
"O=C(O)CCc1ccc(O)c(CN(CCN(CC(=O)O)Cc2cc(CCC(=O)NCCCCCC(=O)NCCCC[C@H](NC(=O)N[C@@H](CCC(=O)O)C(=O)O)C(=O)O)ccc2O)CC(=O)O)c1 [Compound 1a, Glu-NH—CO—NH-Lys(Ahx)-HBED-CC, reference compound]",IC50,PSMA [3],16.6 ± 2.4 nM
same,Specific binding (SB) SB = TB − NSB,PSMA [4],12.3
same,Total binding (TB),PSMA [4],13.5
same,Nonspecific binding (NSB),PSMA [4],1.2
